Source: PMC7714403 (JCI Insight, 2020)
Where two headings read alike, the source gives them in different places.

Tests used:
Assay in all cases: KiNativ, MOLM13 live cells
Assay type in all cases: cell-based
CDK4 = CDK4 (Homo sapiens, UniProt P11802); settings: MOLM-13; 100 nM, 2 hours; Lys2; read-out: Inhibition vs DMSO
Method: (§1) Samples were analyzed by KiNativ in situ kinase profiling by ActivX Biosciences.

CDK6 = CDK6 (Homo sapiens, UniProt Q00534); settings: MOLM-13; 100 nM, 2 hours; Lys2; read-out: Inhibition vs DMSO
Method: as §1

CaMKK2 = CaMKK2 (Homo sapiens, UniProt Q96RR4); settings: MOLM-13, 2 h, 100 nM
CaMKK2, sequence (Q96RR4 whole entry): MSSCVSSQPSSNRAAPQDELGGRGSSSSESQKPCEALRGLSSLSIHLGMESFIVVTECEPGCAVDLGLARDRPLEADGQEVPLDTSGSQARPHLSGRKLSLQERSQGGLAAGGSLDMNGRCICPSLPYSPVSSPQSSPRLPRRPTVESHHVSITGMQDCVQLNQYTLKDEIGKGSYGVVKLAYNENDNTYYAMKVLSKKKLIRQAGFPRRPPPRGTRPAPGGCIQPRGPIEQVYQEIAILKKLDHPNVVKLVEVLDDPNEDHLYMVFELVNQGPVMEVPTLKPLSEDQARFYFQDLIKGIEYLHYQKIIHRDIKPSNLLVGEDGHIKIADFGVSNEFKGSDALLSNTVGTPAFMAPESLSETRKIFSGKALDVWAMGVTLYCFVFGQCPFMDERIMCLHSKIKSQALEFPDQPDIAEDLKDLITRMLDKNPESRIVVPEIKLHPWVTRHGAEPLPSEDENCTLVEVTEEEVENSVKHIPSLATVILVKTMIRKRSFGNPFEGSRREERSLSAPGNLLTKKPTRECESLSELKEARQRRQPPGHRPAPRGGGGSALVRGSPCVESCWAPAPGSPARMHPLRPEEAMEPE
Method: as §1

Erk2 = Erk2 (Homo sapiens, UniProt P28482); settings: MOLM-13; 100 nM, 2 hours; Lys2; read-out: Inhibition vs DMSO
Method: as §1

FRAP = FRAP (Homo sapiens, UniProt P42345); settings: MOLM-13; 100 nM, 2 hours; ATP; read-out: Inhibition vs DMSO
Method: as §1

GCK = molecular target: T1, GCK (Homo sapiens, UniProt Q12851); settings: MOLM-13; 100 nM, 2 hours; Lys2; read-out: Inhibition vs DMSO
T1 sequence (Q12851 1-820): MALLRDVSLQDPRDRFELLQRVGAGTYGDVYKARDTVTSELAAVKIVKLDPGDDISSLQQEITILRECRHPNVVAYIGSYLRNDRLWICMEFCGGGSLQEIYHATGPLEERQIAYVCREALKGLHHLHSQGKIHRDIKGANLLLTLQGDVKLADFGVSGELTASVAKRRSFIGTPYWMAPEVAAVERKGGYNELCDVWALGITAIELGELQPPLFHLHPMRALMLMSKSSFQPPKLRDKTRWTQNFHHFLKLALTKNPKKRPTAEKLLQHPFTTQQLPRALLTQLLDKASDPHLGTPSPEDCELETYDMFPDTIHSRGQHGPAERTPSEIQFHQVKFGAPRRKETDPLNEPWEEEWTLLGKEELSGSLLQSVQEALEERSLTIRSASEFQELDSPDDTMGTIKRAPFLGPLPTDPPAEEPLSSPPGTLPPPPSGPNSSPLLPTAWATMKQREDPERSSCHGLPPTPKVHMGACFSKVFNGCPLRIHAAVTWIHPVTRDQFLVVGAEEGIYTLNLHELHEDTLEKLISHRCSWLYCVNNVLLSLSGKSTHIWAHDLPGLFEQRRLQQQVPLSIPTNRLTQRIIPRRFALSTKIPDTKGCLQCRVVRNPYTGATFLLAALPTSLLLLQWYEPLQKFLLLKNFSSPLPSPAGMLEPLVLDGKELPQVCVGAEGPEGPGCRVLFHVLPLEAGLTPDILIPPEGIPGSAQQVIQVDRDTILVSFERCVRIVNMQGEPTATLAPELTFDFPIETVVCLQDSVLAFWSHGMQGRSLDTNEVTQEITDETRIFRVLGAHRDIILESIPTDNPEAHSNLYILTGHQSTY
Method: as §1

GCN2 domain2 = molecular target: T2, GCN2 domain2 (Homo sapiens, UniProt Q9P2K8); settings: MOLM-13, 2 h, 100 nM
T2 construct: GCN2 domain2
Method: as §1

IRE1 = IRE1 (Homo sapiens, UniProt O75460); settings: MOLM-13; 100 nM, 2 hours; Lys2; read-out: Inhibition vs DMSO
Method: as §1

MAP2K3 = molecular target: T3, MAP2K3 (Homo sapiens, UniProt P46734); settings: MOLM-13, 2 h, 100 nM
T3 sequence (P46734 1-347): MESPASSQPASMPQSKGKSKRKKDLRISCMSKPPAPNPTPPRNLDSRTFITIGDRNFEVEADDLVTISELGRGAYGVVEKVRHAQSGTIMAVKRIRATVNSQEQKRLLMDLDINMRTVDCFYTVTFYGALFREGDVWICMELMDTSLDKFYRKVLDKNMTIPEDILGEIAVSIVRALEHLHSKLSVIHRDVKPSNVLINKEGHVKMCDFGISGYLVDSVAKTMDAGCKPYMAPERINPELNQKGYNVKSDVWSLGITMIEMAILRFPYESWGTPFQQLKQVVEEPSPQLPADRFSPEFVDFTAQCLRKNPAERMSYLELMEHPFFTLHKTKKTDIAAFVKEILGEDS
Method: as §1

MAP2K7 = MAP2K7 (Homo sapiens, UniProt O14733); settings: 100 nM, 2 hours; Lys2
Method: as §1

MAP4K3 = MAP4K3 (Homo sapiens, UniProt Q8IVH8); settings: 100 nM, 2 hours; Lys2
Method: as §1

MAPKAPK3 = MAPKAPK3 (Homo sapiens, UniProt Q16644); settings: MOLM-13; 100 nM, 2 hours; ATP Loop; read-out: Inhibition vs DMSO
Method: as §1

MAST3 = MAST3 (Homo sapiens, UniProt O60307); settings: MOLM-13; 100 nM, 2 hours; Lys2; read-out: Inhibition vs DMSO
Method: as §1

MST3 = MST3 (Homo sapiens, UniProt Q9Y6E0); settings: 100 nM, 2 hours; Lys2
Method: as §1

NDR2 = NDR2 (Homo sapiens, UniProt Q9Y2H1); settings: MOLM-13; 100 nM, 2 hours; Lys1; read-out: Inhibition vs DMSO
Method: as §1

NEK8 = NEK8 (Homo sapiens, UniProt Q86SG6); settings: MOLM-13; 100 nM, 2 hours; Lys2; read-out: Inhibition vs DMSO
Method: as §1

PCTAIRE1 = PCTAIRE1 (Homo sapiens, UniProt Q00536); settings: MOLM-13; 100 nM, 2 hours; Lys1; read-out: Inhibition vs DMSO
PCTAIRE1, sequence (Q00536 whole entry): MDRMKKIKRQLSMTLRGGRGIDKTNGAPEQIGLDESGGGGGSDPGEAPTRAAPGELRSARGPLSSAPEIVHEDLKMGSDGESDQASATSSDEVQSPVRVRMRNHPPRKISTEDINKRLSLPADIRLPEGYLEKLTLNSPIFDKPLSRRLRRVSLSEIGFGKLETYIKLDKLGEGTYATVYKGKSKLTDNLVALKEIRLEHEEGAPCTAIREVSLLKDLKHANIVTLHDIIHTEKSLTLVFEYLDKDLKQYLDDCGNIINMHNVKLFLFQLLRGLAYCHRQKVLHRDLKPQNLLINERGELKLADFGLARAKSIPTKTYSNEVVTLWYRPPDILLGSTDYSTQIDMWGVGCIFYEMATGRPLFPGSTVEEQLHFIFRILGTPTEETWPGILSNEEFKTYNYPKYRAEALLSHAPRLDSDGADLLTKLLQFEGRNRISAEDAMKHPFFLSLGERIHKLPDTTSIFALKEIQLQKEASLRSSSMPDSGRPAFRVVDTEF
Method: as §1

RSK2 domain2 = molecular target: T4, RSK2 domain2 (Homo sapiens, UniProt P51812); settings: MOLM-13; 100 nM, 2 hours; Lys2; read-out: Inhibition vs DMSO
T4 construct: RSK2 domain2
Method: as §1

SGK3 = SGK3 (Homo sapiens, UniProt Q96BR1); settings: MOLM-13; 100 nM, 2 hours; Lys1; read-out: Inhibition vs DMSO
Method: as §1

SMG1 = SMG1 (Homo sapiens, UniProt Q96Q15); settings: 100 nM, 2 hours, ATP
SMG1, sequence (Q96Q15 whole entry): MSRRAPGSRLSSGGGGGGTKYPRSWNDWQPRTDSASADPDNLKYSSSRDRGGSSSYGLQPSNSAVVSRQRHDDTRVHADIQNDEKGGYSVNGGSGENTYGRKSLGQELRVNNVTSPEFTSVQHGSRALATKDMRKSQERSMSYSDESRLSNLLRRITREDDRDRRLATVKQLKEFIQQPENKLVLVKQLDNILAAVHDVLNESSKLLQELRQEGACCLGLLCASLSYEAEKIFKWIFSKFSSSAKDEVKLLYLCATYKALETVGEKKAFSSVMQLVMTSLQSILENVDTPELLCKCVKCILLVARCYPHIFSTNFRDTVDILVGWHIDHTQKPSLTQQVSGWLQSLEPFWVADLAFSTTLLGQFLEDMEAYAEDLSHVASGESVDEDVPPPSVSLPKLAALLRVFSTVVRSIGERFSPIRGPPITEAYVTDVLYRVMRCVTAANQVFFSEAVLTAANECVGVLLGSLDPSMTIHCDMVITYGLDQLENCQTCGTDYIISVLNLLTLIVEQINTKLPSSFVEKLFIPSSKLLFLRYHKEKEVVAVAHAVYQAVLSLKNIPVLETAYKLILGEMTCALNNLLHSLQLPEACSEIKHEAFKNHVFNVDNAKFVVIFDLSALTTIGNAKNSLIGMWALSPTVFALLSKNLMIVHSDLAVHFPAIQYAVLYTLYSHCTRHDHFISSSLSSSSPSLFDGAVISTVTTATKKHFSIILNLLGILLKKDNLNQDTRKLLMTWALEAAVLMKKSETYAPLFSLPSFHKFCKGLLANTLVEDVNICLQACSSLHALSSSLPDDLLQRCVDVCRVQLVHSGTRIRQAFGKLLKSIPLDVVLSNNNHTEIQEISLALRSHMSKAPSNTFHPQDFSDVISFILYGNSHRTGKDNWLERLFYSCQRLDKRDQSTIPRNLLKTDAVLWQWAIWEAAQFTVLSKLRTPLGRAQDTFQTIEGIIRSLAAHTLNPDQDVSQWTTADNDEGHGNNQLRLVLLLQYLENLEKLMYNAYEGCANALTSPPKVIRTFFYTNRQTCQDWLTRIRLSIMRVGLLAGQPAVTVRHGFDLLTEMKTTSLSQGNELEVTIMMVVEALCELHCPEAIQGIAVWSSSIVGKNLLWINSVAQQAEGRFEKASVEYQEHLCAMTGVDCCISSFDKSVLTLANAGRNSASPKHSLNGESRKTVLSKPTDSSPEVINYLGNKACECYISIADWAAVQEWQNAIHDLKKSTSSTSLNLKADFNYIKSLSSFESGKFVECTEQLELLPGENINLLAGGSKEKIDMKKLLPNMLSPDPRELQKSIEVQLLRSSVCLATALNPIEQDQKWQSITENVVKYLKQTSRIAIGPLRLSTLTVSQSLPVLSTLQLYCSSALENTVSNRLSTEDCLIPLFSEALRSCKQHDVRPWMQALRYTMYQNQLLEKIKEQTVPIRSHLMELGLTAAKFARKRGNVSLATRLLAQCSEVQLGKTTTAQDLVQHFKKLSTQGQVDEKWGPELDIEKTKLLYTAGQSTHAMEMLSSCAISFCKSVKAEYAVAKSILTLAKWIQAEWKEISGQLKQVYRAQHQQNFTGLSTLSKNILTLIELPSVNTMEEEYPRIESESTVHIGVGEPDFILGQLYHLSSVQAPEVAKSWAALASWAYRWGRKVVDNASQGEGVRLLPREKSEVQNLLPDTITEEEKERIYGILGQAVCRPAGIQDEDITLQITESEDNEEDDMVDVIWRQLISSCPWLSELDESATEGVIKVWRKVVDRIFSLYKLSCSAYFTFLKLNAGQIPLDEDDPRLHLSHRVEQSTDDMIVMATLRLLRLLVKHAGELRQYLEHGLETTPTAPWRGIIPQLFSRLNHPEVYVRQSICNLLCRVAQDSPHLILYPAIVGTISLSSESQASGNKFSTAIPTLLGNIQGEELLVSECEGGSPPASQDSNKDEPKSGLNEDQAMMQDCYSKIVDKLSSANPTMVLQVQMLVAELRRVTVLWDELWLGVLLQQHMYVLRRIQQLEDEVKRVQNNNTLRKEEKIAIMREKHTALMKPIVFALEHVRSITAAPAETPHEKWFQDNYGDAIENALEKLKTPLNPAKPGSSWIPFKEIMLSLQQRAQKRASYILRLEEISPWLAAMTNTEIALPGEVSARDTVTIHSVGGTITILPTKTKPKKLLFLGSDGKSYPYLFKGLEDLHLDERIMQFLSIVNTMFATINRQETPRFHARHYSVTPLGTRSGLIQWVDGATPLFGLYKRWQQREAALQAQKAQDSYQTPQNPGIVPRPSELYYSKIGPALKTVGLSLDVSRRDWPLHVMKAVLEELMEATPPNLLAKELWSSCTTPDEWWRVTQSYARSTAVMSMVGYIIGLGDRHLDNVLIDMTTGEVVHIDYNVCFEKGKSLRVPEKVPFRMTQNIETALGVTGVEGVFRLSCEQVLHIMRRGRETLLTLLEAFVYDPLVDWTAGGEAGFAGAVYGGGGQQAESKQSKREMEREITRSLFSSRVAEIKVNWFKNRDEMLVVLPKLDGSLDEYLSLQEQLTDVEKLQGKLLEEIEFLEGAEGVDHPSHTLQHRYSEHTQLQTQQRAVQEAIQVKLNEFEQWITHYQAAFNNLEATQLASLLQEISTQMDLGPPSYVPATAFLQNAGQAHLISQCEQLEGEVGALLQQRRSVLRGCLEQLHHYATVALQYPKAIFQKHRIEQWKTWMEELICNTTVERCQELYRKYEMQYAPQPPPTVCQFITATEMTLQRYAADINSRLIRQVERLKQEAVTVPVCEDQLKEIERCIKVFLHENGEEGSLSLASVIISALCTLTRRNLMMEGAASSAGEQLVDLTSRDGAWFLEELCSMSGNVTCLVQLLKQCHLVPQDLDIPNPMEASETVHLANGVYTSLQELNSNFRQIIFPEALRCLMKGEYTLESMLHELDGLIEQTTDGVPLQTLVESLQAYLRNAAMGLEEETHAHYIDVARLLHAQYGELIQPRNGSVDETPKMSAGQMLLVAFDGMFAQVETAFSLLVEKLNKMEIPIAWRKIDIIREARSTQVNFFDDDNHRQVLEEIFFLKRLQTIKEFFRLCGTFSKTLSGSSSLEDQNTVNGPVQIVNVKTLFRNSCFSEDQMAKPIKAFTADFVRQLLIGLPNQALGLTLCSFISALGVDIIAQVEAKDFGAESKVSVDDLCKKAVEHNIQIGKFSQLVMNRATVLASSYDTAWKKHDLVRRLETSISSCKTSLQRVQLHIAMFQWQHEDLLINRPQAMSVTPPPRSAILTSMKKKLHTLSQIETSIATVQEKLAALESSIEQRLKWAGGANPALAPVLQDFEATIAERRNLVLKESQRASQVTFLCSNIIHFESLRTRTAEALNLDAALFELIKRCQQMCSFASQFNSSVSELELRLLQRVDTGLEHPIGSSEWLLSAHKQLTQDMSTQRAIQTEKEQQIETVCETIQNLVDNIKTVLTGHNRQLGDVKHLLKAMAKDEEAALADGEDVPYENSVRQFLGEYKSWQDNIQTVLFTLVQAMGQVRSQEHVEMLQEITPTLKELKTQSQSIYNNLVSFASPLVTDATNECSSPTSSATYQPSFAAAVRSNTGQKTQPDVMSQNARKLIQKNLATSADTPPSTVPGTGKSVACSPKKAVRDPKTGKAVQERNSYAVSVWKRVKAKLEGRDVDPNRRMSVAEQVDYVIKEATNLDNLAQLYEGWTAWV
Method: as §1

TYK2 domain2 = molecular target: T5, TYK2 domain2 (Homo sapiens, UniProt P29597); settings: 100 nM, 2 hours; Activation Loop
T5 construct: TYK2 domain2
Method: as §1

p38a = p38a (Homo sapiens, UniProt Q16539); settings: 100 nM, 2 hours
p38a, sequence (Q16539 whole entry): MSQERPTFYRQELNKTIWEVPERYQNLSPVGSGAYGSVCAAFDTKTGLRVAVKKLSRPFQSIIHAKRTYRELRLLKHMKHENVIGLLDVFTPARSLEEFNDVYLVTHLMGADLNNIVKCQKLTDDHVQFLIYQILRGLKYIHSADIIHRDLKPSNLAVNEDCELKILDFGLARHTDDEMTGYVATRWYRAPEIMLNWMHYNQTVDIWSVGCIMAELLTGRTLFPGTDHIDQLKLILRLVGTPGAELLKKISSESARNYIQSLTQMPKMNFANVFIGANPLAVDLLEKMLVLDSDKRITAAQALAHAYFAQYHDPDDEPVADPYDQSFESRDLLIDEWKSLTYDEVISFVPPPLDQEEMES
Method: as §1

[1] = Lys1, read-out: Inhibition vs DMSO
[2] = Lys2, read-out: Inhibition vs DMSO

CN1CCN(Cc2ccc(Nc3ncc(Cl)c(Nc4ccccc4S(=O)(=O)N(C)C)n3)cc2)CC1 [TP-0903] gave an inhibition at 0.1 µM (CDK4) of 9.8%, an inhibition at 0.1 µM (CDK6) of 80.8% and an inhibition at 0.1 µM (CaMKK2; [1]) of 40.8%. For the same compound, the inhibition at 0.1 µM (CaMKK2; [2]) was 36.1%, the inhibition at 0.1 µM (Erk2) was -9.4% and the inhibition at 0.1 µM (FRAP) was -9.8%. The inhibition at 0.1 µM (GCK) was 29.8%, the inhibition at 0.1 µM (GCN2 domain2; [1]) was -22.2% and the inhibition at 0.1 µM (GCN2 domain2; [2]) was -33.5%. For the same compound, the inhibition at 0.1 µM (IRE1) was -29.3%, the inhibition at 0.1 µM (MAP2K3; Activation Loop, read-out: Inhibition vs DMSO) was -10.9% and the inhibition at 0.1 µM (MAP2K3; [1]) was 3.4%. The inhibition at 0.1 µM (MAP2K3; [2]) was 8.2%, the “Inhibition vs DMSO” value (MAP2K7) was -0.0231% and the “Inhibition vs DMSO” value (MAP4K3) was 45.4%. The inhibition at 0.1 µM (MAPKAPK3) was -45.7%, the inhibition at 0.1 µM (MAST3) was -22.3% and the “Inhibition vs DMSO” value (MST3) was 55.3%. For the same compound, the inhibition at 0.1 µM (NDR2) was -0.6%, the inhibition at 0.1 µM (NEK8) was -5.3% and the inhibition at 0.1 µM (PCTAIRE1) was 69.6%. The inhibition at 0.1 µM (RSK2 domain2) was -47.6%, the inhibition at 0.1 µM (SGK3) was -9.6% and the “Inhibition vs DMSO” value (SMG1; DTVTIHSVGGTITILPTKTKPK) was -27.8%. The “Inhibition vs DMSO” value (SMG1; SYPYLFKGLEDLHLDER) was -27.3%, the “Inhibition vs DMSO” value (TYK2 domain2) was -0.9% and the “Inhibition vs DMSO” value (p38a; Lys2) was -1.9%. The “Inhibition vs DMSO” value (p38a; Other) was 17.3%.
